Laboratory results: publication PMC12361428 (Nature Communications, 2025)
Where “and” joins values, the source holds several entries; their conditions need not be identical. Equal values may be shown once.

What was measured:
[1] = target: T1, Nluc-A3AR WT (Homo sapiens, UniProt P0DMS8); assay: biochemical; format: binding
T1 construct: expressed in transfected cells; host or cells: HEK293a
Procedure: (§1) All experiments were performed in duplicate.
(§2) Data were expressed as the mean ± standard error. All binding and Trupath data were analysed using the nonlinear regression curve-fitting programme with Prism 10 (GraphPad, San Diego, CA, USA). For nanoBRET saturation binding experiments, specific binding was calculated by subtracting non-specific binding (defined as binding in the presence of 10 µM MRS1220) from total binding. Specific binding data in each experiment were then normalised to the maximal binding (Bmax) of WT and fit to a one-site specific binding equation: Y =Bmax*[X]/(Kd + [X]). For nanoBRET competition binding experiments, data were normalised to total and non-specific binding responses and fit to a one-site—Fit Ki equation. […] Significant differences vs WT were determined by one-way ANOVA with a Dunnett’s multiple comparison test.

[2] = target: T2, Nluc-A3AR Y15A^1.35 (Homo sapiens, UniProt P0DMS8, Y15A); assay: biochemical; format: binding
T2 construct: expressed in transfected cells; host or cells: HEK293a
Procedure: as §1
(§3) Data were expressed as the mean ± standard error. All binding and Trupath data were analysed using the nonlinear regression curve-fitting programme with Prism 10 (GraphPad, San Diego, CA, USA). For nanoBRET saturation binding experiments, specific binding was calculated by subtracting non-specific binding (defined as binding in the presence of 10 µM MRS1220) from total binding. Specific binding data in each experiment were then normalised to the maximal binding (Bmax) of WT and fit to a one-site specific binding equation: Y =Bmax*[X]/(Kd + [X]). For nanoBRET competition binding experiments, data were normalised to total and non-specific binding responses and fit to a one-site—Fit Ki equation. Trupath's experimental data was baseline-corrected to the initial four baseline reads and then adjusted to the buffer control response. The area under the curve (AUC) for each response was calculated and plotted with a non-linear regression curve (log[agonist] vs response, three-parameter model), using the equation: Y = Bottom + (Top–Bottom)/(1 + 10^((LogEC50-X))). Here, X represents the log dose of the agonist, Y is the BRET2 AUC response, Top and Bottom are the curve plateaus, and EC50 is the agonist concentration yielding a response halfway between the Bottom and Top values. […] The efficacy of the agonists (τA) was separately calculated using the Black–Leff operational model of agonism[79] using KA values from Table 2 and then corrected for receptor expression relative to WT using Bmax values from Table 1[80]. Significant differences vs WT were determined by one-way ANOVA with a Dunnett’s multiple comparison test.

[3] = target: T3, Nluc-A3AR S73A^2.65 (Homo sapiens, UniProt P0DMS8, S73A); assay: biochemical; format: binding
T3 construct: expressed in transfected cells; host or cells: HEK293a
Procedure: as §1, §2

[4] = target: T4, Nluc-A3AR T94A^3.36 (Homo sapiens, UniProt P0DMS8, T94A); assay: biochemical; format: binding
T4 construct: expressed in transfected cells; host or cells: HEK293a
Procedure: as §1, §3

[5] = target: T5, Nluc-A3AR H95A^3.37 (Homo sapiens, UniProt P0DMS8, H95A); assay: biochemical; format: binding
T5 construct: expressed in transfected cells; host or cells: HEK293a
Procedure: as §1
(§4) Data were expressed as the mean ± standard error. All binding and Trupath data were analysed using the nonlinear regression curve-fitting programme with Prism 10 (GraphPad, San Diego, CA, USA). For nanoBRET saturation binding experiments, specific binding was calculated by subtracting non-specific binding (defined as binding in the presence of 10 µM MRS1220) from total binding. Specific binding data in each experiment were then normalised to the maximal binding (Bmax) of WT and fit to a one-site specific binding equation: Y =Bmax*[X]/(Kd + [X]). For nanoBRET competition binding experiments, data were normalised to total and non-specific binding responses and fit to a one-site—Fit Ki equation. Trupath's experimental data was baseline-corrected to the initial four baseline reads and then adjusted to the buffer control response. The area under the curve (AUC) for each response was calculated and plotted with a non-linear regression curve (log[agonist] vs response, three-parameter model), using the equation: Y = Bottom + (Top–Bottom)/(1 + 10^((LogEC50-X))). Here, X represents the log dose of the agonist, Y is the BRET2 AUC response, Top and Bottom are the curve plateaus, and EC50 is the agonist concentration yielding a response halfway between the Bottom and Top values. […] Significant differences vs WT were determined by one-way ANOVA with a Dunnett’s multiple comparison test. Significance levels are indicated as follows: P ≤ 0.0001****, P = 0.0001–0.001***, P = 0.001–0.01**, and P = 0.01–0.05*.

[6] = target: T6, Nluc-A3AR H95F^3.37 (Homo sapiens, UniProt P0DMS8, H95F); assay: biochemical; format: binding
T6 construct: expressed in transfected cells; host or cells: HEK293a
Procedure: as §1, §4

[7] = target: T7, Nluc-A3AR V169E^45.53 (Homo sapiens, UniProt P0DMS8, V169E); assay: biochemical; format: binding
T7 construct: expressed in transfected cells; host or cells: HEK293a
Procedure: as §1, §4

[8] = target: T8, Nluc-A3AR M174A^5.35 (Homo sapiens, UniProt P0DMS8, M174A); assay: biochemical; format: binding
T8 construct: expressed in transfected cells; host or cells: HEK293a
Procedure: as §1, §3

[9] = target: T9, Nluc-A3AR Y265A^7.36 (Homo sapiens, UniProt P0DMS8, Y265A); assay: biochemical; format: binding
T9 construct: expressed in transfected cells; host or cells: HEK293a
Procedure: as §1, §3

[10] = target: T10, Nluc-A3AR S271A^7.42 (Homo sapiens, UniProt P0DMS8, S271A); assay: biochemical; format: binding
T10 construct: expressed in transfected cells; host or cells: HEK293a
Procedure: as §1, §2

[11] = target: T11, A3AR-BRIL (Homo sapiens, UniProt P0DMS8); assay: NanoBRET competition binding vs XAC-630; details: for XAC-630 NanoBRET binding, normalised (Figure S2H), individual replicates: A3AR-BRIL
T11 sequence (P0DMS8 1-318): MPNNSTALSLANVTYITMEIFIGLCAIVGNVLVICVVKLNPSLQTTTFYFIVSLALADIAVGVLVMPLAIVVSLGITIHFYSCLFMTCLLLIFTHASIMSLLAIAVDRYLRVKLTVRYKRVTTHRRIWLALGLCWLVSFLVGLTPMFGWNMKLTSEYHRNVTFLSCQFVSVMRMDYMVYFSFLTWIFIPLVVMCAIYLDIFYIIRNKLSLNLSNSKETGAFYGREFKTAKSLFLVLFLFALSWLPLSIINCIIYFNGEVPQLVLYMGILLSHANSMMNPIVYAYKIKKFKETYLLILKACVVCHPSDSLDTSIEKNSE
Procedure: as §1, §2

T10 sequence (P0DMS8 whole entry S271A): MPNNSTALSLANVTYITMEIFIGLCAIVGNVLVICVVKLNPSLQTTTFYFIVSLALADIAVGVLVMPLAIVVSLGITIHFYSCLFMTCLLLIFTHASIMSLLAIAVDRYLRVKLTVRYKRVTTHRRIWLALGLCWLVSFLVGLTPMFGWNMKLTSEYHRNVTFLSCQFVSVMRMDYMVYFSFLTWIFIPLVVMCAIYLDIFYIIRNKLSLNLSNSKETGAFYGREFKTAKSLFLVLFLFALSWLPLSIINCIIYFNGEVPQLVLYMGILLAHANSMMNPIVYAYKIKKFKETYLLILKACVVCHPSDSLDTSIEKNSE
T3 sequence (P0DMS8 whole entry S73A): as the sequence (P0DMS8 whole entry S271A) above, with S73A, A271S counted along it
T2 sequence (P0DMS8 whole entry Y15A): as the sequence (P0DMS8 whole entry S271A) above, with Y15A, A271S counted along it
T7 sequence (P0DMS8 whole entry V169E): as the sequence (P0DMS8 whole entry S271A) above, with V169E, A271S counted along it
T8 sequence (P0DMS8 whole entry M174A): as the sequence (P0DMS8 whole entry S271A) above, with M174A, A271S counted along it
T4 sequence (P0DMS8 whole entry T94A): as the sequence (P0DMS8 whole entry S271A) above, with T94A, A271S counted along it
T9 sequence (P0DMS8 whole entry Y265A): as the sequence (P0DMS8 whole entry S271A) above, with Y265A, A271S counted along it
T5 sequence (P0DMS8 whole entry H95A): as the sequence (P0DMS8 whole entry S271A) above, with H95A, A271S counted along it
T6 sequence (P0DMS8 whole entry H95F): as the sequence (P0DMS8 whole entry S271A) above, with H95F, A271S counted along it

Which results are given for `CCCn1c(=O)c2c(nc3cc(OC)ccn32)n(CCCCNC(=O)c2ccc(S(=O)(=O)F)cc2)c1=O` [LUF7602]?
pKi ([1]; WT): 7.5 ± 0.05 (4); ΔpKi relative to WT ([1]; WT): 0; pKi Mean (Figure S2H) ([1]; WT, n 3): 7.306; XAC-630 NanoBRET binding, normalised (Figure S2H), individual replicates ([1]; log LUF7602 -5, A3AR-WT): 0; normalised XAC-630 binding at 10 µM ([1]; read-out: XAC-630 NanoBRET binding, normalised (Figure S2H), individual replicates, log LUF7602 -5, A3AR-WT): 0%; normalised XAC-630 binding at 0.1 µM ([1]; read-out: XAC-630 NanoBRET binding, normalised (Figure S2H), individual replicates, log LUF7602 -7, A3AR-WT): 59.3%; normalised XAC-630 binding at 0.01 µM ([1]; read-out: XAC-630 NanoBRET binding, normalised (Figure S2H), individual replicates, log LUF7602 -8, A3AR-WT): 78%; normalised XAC-630 binding at 0.0001 µM ([1]; read-out: XAC-630 NanoBRET binding, normalised (Figure S2H), individual replicates, log LUF7602 -10, A3AR-WT): 89.4%; normalised XAC-630 binding at 0.06026 µM ([1]; read-out: normalised XAC-630 binding, WT, log[LUF7602] -7.22 M): 69.6%; normalised XAC-630 binding at 0.006026 µM ([1]; read-out: normalised XAC-630 binding, WT, log[LUF7602] -8.22 M): 96.8%; normalised XAC-630 binding at 0.0006026 µM ([1]; read-out: normalised XAC-630 binding, WT, log[LUF7602] -9.22 M): 90.4%; normalised XAC-630 binding at 60.26 pM ([1]; read-out: normalised XAC-630 binding, WT, log[LUF7602] -10.22 M): 100%; pKi ([2]; Y15A): 6.6 ± 0.2 (4); reduction of binding affinity vs WT ([2]; Y15A): 10 fold; ΔpKi relative to WT ([2]; Y15A): -0.882; remaining activity at 60.26 pM ([2]; read-out: normalised XAC-630 binding, Y15A, log[LUF7602] -10.22 M): 100%; pKi ([3]; S73A): 7.2 ± 0.06 (3); ΔpKi relative to WT ([3]; S73A): -0.31; remaining activity at 0.06026 µM ([3]; read-out: normalised XAC-630 binding, S73A, log[LUF7602] -7.22 M): 71.4%; remaining activity at 0.006026 µM ([3]; read-out: normalised XAC-630 binding, S73A, log[LUF7602] -8.22 M): 90.3%; remaining activity at 0.0006026 µM ([3]; read-out: normalised XAC-630 binding, S73A, log[LUF7602] -9.22 M): 91.8%; remaining activity at 60.26 pM ([3]; read-out: normalised XAC-630 binding, S73A, log[LUF7602] -10.22 M): 100%; remaining activity at 0.6026 µM ([3]; read-out: normalised XAC-630 binding, S73A, log[LUF7602] -[…]): 19.1%; pKi ([4]; T94A): 7.3 ± 0.05 (3); ΔpKi relative to WT ([4]; T94A): -0.208; remaining activity at 0.06026 µM ([4]; read-out: normalised XAC-630 binding, T94A, log[LUF7602] -7.22 M): 77.1%; remaining activity at 0.006026 µM ([4]; read-out: normalised XAC-630 binding, T94A, log[LUF7602] -8.22 M): 100%; remaining activity at 0.0006026 µM ([4]; read-out: normalised XAC-630 binding, T94A, log[LUF7602] -9.22 M): 87.2%; remaining activity at 60.26 pM ([4]; read-out: normalised XAC-630 binding, T94A, log[LUF7602] -10.22 M): 100%; pKi ([5]; H95A): 6.2 ± 0.2 (3); reduction of binding affinity vs WT ([5]; H95A): ~ 10 fold; ΔpKi relative to WT ([5]; H95A): -1.328; remaining activity at 0.1 µM ([5]; read-out: normalised XAC-630 binding, H95A, log[LUF7602] -7 M): 98.1%; remaining activity at 0.01 µM ([5]; read-out: normalised XAC-630 binding, H95A, log[LUF7602] -8 M): 113%; remaining activity at 0.001 µM ([5]; read-out: normalised XAC-630 binding, H95A, log[LUF7602] -9 M): 104%; remaining activity at 0.0001 µM ([5]; read-out: normalised XAC-630 binding, H95A, log[LUF7602] -10 M): 100%; pKi ([6]; H95F): 6.4 ± 0.09 (3); reduction of binding affinity vs WT ([6]; H95F): ~ 10 fold; ΔpKi relative to WT ([6]; H95F): -1.06; remaining activity at 0.006026 µM ([6]; read-out: normalised XAC-630 binding, H95F, log[LUF7602] -8.22 M): 88.8%; remaining activity at 60.26 pM ([6]; read-out: normalised XAC-630 binding, H95F, log[LUF7602] -10.22 M): 100%; remaining activity at 0.6026 µM ([6]; read-out: normalised XAC-630 binding, H95F, log[LUF7602] -[…]): 47%; pKi ([7]; V169E): 7.2 ± 0.05 (3); ΔpKi relative to WT ([7]; V169E): -0.293; remaining activity at 0.06026 µM ([7]; read-out: normalised XAC-630 binding, V169E, log[LUF7602] -7.22 M): 87.5%; remaining activity at 0.006026 µM ([7]; read-out: normalised XAC-630 binding, V169E, log[LUF7602] -8.22 M): 97.5%; remaining activity at 0.0006026 µM ([7]; read-out: normalised XAC-630 binding, V169E, log[LUF7602] -9.22 M): 105%; remaining activity at 60.26 pM ([7]; read-out: normalised XAC-630 binding, V169E, log[LUF7602] -10.22 M): 100%; remaining activity at 0.6026 µM ([7]; read-out: normalised XAC-630 binding, V169E, log[LUF7602] -[…]): 17%; pKi ([8]; M174A): 6.5 ± 0.09 (3); reduction of binding affinity vs WT ([8]; M174A): 10 fold; ΔpKi relative to WT ([8]; M174A): -0.957; remaining activity at 0.06026 µM ([8]; read-out: normalised XAC-630 binding, M174A, log[LUF7602] -7.22 M): 96.7%; remaining activity at 0.0006026 µM ([8]; read-out: normalised XAC-630 binding, M174A, log[LUF7602] -9.22 M): 112%; remaining activity at 60.26 pM ([8]; read-out: normalised XAC-630 binding, M174A, log[LUF7602] -10.22 M): 100%; remaining activity at 0.6026 µM ([8]; read-out: normalised XAC-630 binding, M174A, log[LUF7602] -[…]): 44.9%; pKi ([9]; Y265A): 6.3 ± 0.07 (3); reduction of binding affinity vs WT ([9]; Y265A): 15 fold; ΔpKi relative to WT ([9]; Y265A): -1.2; remaining activity at […] ([9]; read-out: normalised XAC-630 binding, Y265A, log[LUF7602] -9.5 M): 100%; ΔpKi relative to WT ([10]; S271A): 0.423; pKi ([10]; S271A, 40 nM XAC-630): 7.9 ± 0.09 (3); remaining activity at 60.26 pM ([10]; read-out: normalised XAC-630 binding, S271A, log[LUF7602] -10.22 M): 100%; remaining activity at 0.6026 µM ([10]; read-out: normalised XAC-630 binding, S271A, log[LUF7602] -[…]): 5.71%; pKi Mean (Figure S2H) ([11]; BRIL, n 3): 6.94; XAC-630 NanoBRET binding, normalised (Figure S2H), individual replicates ([11]; log LUF7602 -5): 0; XAC-630 NanoBRET binding, normalised (Figure S2H), individual replicates ([11]; log LUF7602 -6): 22.1463 and 17.4094 and 21.7431; XAC-630 NanoBRET binding, normalised (Figure S2H), individual replicates ([11]; log LUF7602 -7): 61.493 and 91.0533 and 82.952; XAC-630 NanoBRET binding, normalised (Figure S2H), individual replicates ([11]; log LUF7602 -8): 66.0931 and 109.671 and 102.784; XAC-630 NanoBRET binding, normalised (Figure S2H), individual replicates ([11]; log LUF7602 -9): 71.5361 and 107.819 and 104.301; XAC-630 NanoBRET binding, normalised (Figure S2H), individual replicates ([11]; log LUF7602 -10): 72.9226 and 106.236 and 100.479
